Laboratory results as given in US8853246B2 (Dow AgroSciences LLC, priority 2009, dated 2014).
Like-named read-outs stand apart in the source and are kept apart here.

Assays:
[1] = tested on: Green Peach Aphid (Myzus Persicae); test: Insecticidal test for green peach aphid in foliar spray assay (col. MYZUPE); format: in vivo; details: for pest or weed control at 200 ppm: Myzus persicae, 72 h, read-out: MYZUPE 200 ppm (Corrected % Control, rating)
Outline: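 Corrected % control derives from microscope counts of live aphids per plant, treated against diluent-only checks, 3 days after foliar spraying at ~25 °C and 40% RH. Test solution was 200 ppm in 0.025% aqueous Tween 20, applied to both leaf sides of infested cabbage seedlings, four pots each.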

[2] = tested on: Sweetpotato Whitefly-Crawler (Bemisia Tabaci); test: Insecticidal test for sweetpotato whitefly-crawler in foliar spray assay (col. BEMITA); format: in vivo; details: for pest or weed control at 200 ppm: Bemisia tabaci, read-out: BEMITA 200 ppm (Corrected % Control, rating)
Outline: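 Percent control, Abbott-corrected against diluent-sprayed plants, from microscope counts of live nymphs 8-9 days after treatment. Test solution at 200 ppm in 0.025% aqueous Tween 20 applied to both leaf sides of egg-infested cotton after a 5-6 day hatch period (82° F, 50% RH).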

SMILES	pest or weed control at 200 ppm ([1]; green peach aphid) [%]	pest or weed control at 200 ppm ([2]; sweetpotato whitefly-crawler) [%]	pest or weed control at 200 ppm ([1]; Abbott's correction formula) [%]	pest or weed control at 200 ppm ([2]; Abbott's correction formula) [%]	other results
CSCC(C)(C)C(=O)N(C)c1sc(-c2cncc(F)c2)nc1C [Compound 39]	80 to 100	80 to 100	–	–	–
Cc1nc(-c2cccnc2)sc1NC(=O)C1=CC(=O)CC(C)(C)O1 [Compound 326]	< 80	< 80	–	–	–
CSCCC(=O)N(C(=O)CCSC)c1sc(-c2cncc(F)c2)nc1C [Compound 185]	80 to 100	80 to 100	–	–	–
Cc1nc(-c2cccnc2)sc1N(C)C(=O)c1cnco1 [Compound 343]	–	–	–	–	MYZUPE 200 ppm (Corrected % Control, rating) ([1]; green peach aphid): A (80-100); BEMITA 200 ppm (Corrected % Control, rating) ([2]; sweetpotato whitefly-crawler): B (Less than 80)
Cc1nc(-c2cncc(F)c2)sc1N(C)C(=O)C1CCSC1 (stereo not drawn) [Compound 214]	80 to 100	80 to 100	–	–	–
CCN(C(=O)c1scnc1C)c1sc(-c2cccnc2)nc1Cl [Compound 555]	–	–	80 to 100	< 80	–
CCN(C(=O)C(C)CSC)c1sc(-c2cccnc2)nc1-c1ccccc1 (stereo not drawn) [Compound 62]	< 80	< 80	–	–	–
CSC(C)C(C)C(=O)N(C)c1sc(-c2cncc(F)c2)nc1Cl (stereo not drawn) [Compound 444]	–	–	80 to 100	80 to 100	–
CCN(C(=O)CC(C)SC)c1sc(-c2cncc(F)c2)nc1Cl (stereo not drawn) [Compound 446]	–	–	80 to 100	80 to 100	–
CSC(C)C(C)C(=O)N(C)c1sc(-c2cccnc2)nc1Cl (stereo not drawn) [Compound 516]	–	–	80 to 100	< 80	–
CN(C(=O)c1cccc(SC(F)F)c1)c1sc(-c2cccnc2)nc1Cl [Compound 382]	< 80	< 80	–	–	–
CSCCC(=O)N(C)c1sc(-c2cccnc2)nc1Cl [Compound 66, N-(4-chloro-2-pyridin-3-yl-thiazol-5-yl)-N-methyl-3-methylsulfanyl-propionamide]	80 to 100	80 to 100	–	–	–
CCCCS/C(=N\CC)N(C)c1sc(-c2cccnc2)nc1C [Compound 472]	–	–	80 to 100	< 80	–
CCCCC(=O)N(CC)c1sc(-c2cccnc2)nc1Cl [Compound 530]	–	–	80 to 100	80 to 100	–
COC(=O)CCC(=O)N(C)c1sc(-c2cccnc2)nc1C [Compound 252]	80 to 100	80 to 100	–	–	–
CN(C(=O)CCS(C)(=O)=O)c1sc(-c2cncc(F)c2)nc1Cl [Compound 273]	80 to 100	80 to 100	–	–	–
CN(C(=O)CN(C)S(=O)(=O)/C=C/c1ccccc1)c1sc(-c2cccnc2)nc1Cl [Compound 437]	–	–	< 80	< 80	–
COCC(C)(C)OC(=O)N(C)c1sc(-c2cccnc2)nc1C [Compound 302]	< 80	80 to 100	–	–	–
CCN(C(=O)CCSCc1ccccc1)c1sc(-c2cccnc2)nc1C [Compound 320]	80 to 100	< 80	–	–	–

SMILES	pest or weed control at 200 ppm ([1]; green peach aphid) [%]	pest or weed control at 200 ppm ([2]; sweetpotato whitefly-crawler) [%]	pest or weed control at 200 ppm ([1]; Abbott's correction formula) [%]	pest or weed control at 200 ppm ([2]; Abbott's correction formula) [%]	other results
Cc1nc(-c2cncc(F)c2)sc1N(C)C(=O)OC(C)(C)C [Compound 165]	80 to 100	80 to 100	–	–	–
Cc1nc(-c2cccnc2)sc1N(C)C(=O)C1CCCN(C(=O)C(C)C)C1 (stereo not drawn) [Compound 410]	80 to 100	80 to 100	–	–	–
CCN(C(=O)OC(C)(C)C)c1sc(-c2cccnc2)nc1Cl [Compound 304, (4-chloro-2-pyridin-3-yl-thiazol-5-yl)-ethyl-carbamic Acid Tert-Butyl Ester]	80 to 100	80 to 100	–	–	–
CC(C(=O)N(C)c1sc(-c2cccnc2)nc1Cl)C(C)[S+](C)[O-] (stereo not drawn) [Compound 522]	–	–	80 to 100	< 80	–
Cc1nc(-c2cncc(F)c2)sc1N(C)C(=O)C(C)CSCc1ccc(Cl)cc1 (stereo not drawn) [Compound 190]	80 to 100	80 to 100	–	–	–
CC(CC(=O)N(C)c1sc(-c2cccnc2)nc1Br)[S+](C)[O-] (stereo not drawn) [Compound 504]	–	–	80 to 100	80 to 100	–
CC(CC(=O)N(C)c1sc(-c2cccnc2)nc1Cl)[S+](C)[O-] (stereo not drawn) [Compound 520]	–	–	80 to 100	< 80	–
CSCCN(C)C(=O)N(C)c1cnc(-c2cncc(F)c2)s1 [Compound 74, [2-(5-fluoropyridin-3-yl)-thiazol-5-yl]-1,3-dimethyl-3-(2-methylsulfanyl-ethyl)urea]	80 to 100	80 to 100	–	–	–
CC(C[S+](C)[O-])C(=O)N(C)c1sc(-c2cccnc2)nc1C(F)(F)F (stereo not drawn) [Compound 89]	< 80	80 to 100	–	–	–
C=CCN(C(=O)C(C)CSC)c1sc(-c2cccnc2)nc1C (stereo not drawn) [Compound 426]	80 to 100	80 to 100	–	–	–
CSCC(Cc1ccccc1)C(=O)N(C)c1sc(-c2cccnc2)nc1C (stereo not drawn) [Compound 330]	< 80	< 80	–	–	–
C=CCSCC(C)C(=O)Nc1sc(-c2cccnc2)nc1C (stereo not drawn) [Compound 224]	80 to 100	80 to 100	–	–	–
Cc1nc(-c2cncc(F)c2)sc1N(C)C(=O)CC[S+](C)[O-] (stereo not drawn) [Compound 91]	80 to 100	80 to 100	–	–	–
CC(C)C(=O)N(C)c1sc(-c2cccnc2)nc1C(F)(F)F [Compound 46]	< 80	< 80	–	–	–
CCc1nc(-c2cccnc2)sc1N(C)C(=O)C(C)(C)CSC [Compound 49]	< 80	80 to 100	–	–	–
CCN(C(=O)CCSC)c1sc(-c2cccnc2)nc1Br [Compound 458]	–	–	80 to 100	80 to 100	–
CCN(C(=O)Cc1cccs1)c1sc(-c2cccnc2)nc1Cl [Compound 550]	–	–	< 80	80 to 100	–
CCN(C(=O)C(C)C(C)[S+](C)[O-])c1sc(-c2cccnc2)nc1Cl (stereo not drawn) [Compound 565]	–	–	80 to 100	80 to 100	–
CSCCNC(=S)N(C)c1sc(-c2cncc(F)c2)nc1Cl [Compound 511]	–	–	80 to 100	< 80	–

SMILES	pest or weed control at 200 ppm ([1]; green peach aphid) [%]	pest or weed control at 200 ppm ([2]; sweetpotato whitefly-crawler) [%]	pest or weed control at 200 ppm ([1]; Abbott's correction formula) [%]	pest or weed control at 200 ppm ([2]; Abbott's correction formula) [%]	other results
Cc1nc(-c2cccnc2)sc1N1CCCC1=O [Compound 211]	80 to 100	80 to 100	–	–	–
CCN(C(=O)CC(C)(C)[S+](C)[O-])c1sc(-c2cccnc2)nc1Cl (stereo not drawn) [Compound 537]	–	–	80 to 100	< 80	–
COc1cncc(-c2nc(Cl)c(N(C)C(=O)CCSC)s2)c1 [Compound 513]	–	–	< 80	< 80	–
CN(C(=O)CCS(C)(=O)=O)c1sc(-c2cccnc2)nc1Br [Compound 507]	–	–	80 to 100	80 to 100	–
Cc1nc(-c2cccnc2)sc1N(C)C(=O)CNC(=O)OC(C)(C)C [Compound 276]	80 to 100	< 80	–	–	–
CSCC(C)(C)C(=O)N(C)c1cnc(-c2cncc(F)c2)s1 [Compound 18, N-[2-(5-fluoropyridin-3-yl)-thiazol-5-yl]-2,2,N-trimethyl-3-methylsulfanyl-propionamide]	80 to 100	80 to 100	–	–	–
Cc1nc(-c2cccnc2)sc1NC(=O)C1CCN1C(=O)OC(C)(C)C (stereo not drawn) [Compound 337]	< 80	80 to 100	–	–	–
Cc1nc(-c2cccnc2)sc1N(C)C(=O)[C@H](C)NC(=O)OC(C)(C)C [Compound 194]	80 to 100	80 to 100	–	–	–
CCOC1(N(C(=O)OC(C)(C)C)c2sc(-c3cccnc3)nc2C)CC1 [Compound 518]	–	–	80 to 100	< 80	–
CCCCOC(=O)N(C)c1sc(-c2cccnc2)nc1C [Compound 483]	–	–	< 80	80 to 100	–
CCSCCC(=O)N(CC)c1sc(-c2cccnc2)nc1C [Compound 322]	80 to 100	< 80	–	–	–
CCN(C(=O)CC(C)(C)SC)c1sc(-c2cccnc2)nc1Cl [Compound 490]	–	–	80 to 100	< 80	–
CSCC(C)(C)C(=O)Nc1sc(-c2cncc(F)c2)nc1C [Compound 139]	80 to 100	80 to 100	–	–	–
CCN(C(=O)C(C)CSC)c1sc(-c2cncc(F)c2)nc1F (stereo not drawn) [Compound 456]	–	–	80 to 100	< 80	–
CN(C(=O)CC[S+](C)[O-])c1sc(-c2ccc(F)nc2)nc1Cl (stereo not drawn) [Compound 469]	–	–	80 to 100	< 80	–
CSCC(C)C(=O)N(C(=O)OC(C)(C)C)c1sc(-c2cccnc2F)nc1C (stereo not drawn) [Compound 154]	< 80	< 80	–	–	–
CN(C(=O)CC[S+](C)[O-])c1sc(-c2cncc(Cl)c2)nc1Cl (stereo not drawn) [Compound 501]	–	–	80 to 100	80 to 100	–
Cc1nc(-c2cccnc2)sc1N(CC1CC1)C(=O)OC(C)(C)C [Compound 462]	–	–	80 to 100	< 80	–
CN(C(=O)c1ccoc1)c1sc(-c2cccnc2)nc1Cl [Compound 401]	–	–	–	–	MYZUPE 200 ppm (Corrected % Control, rating) ([1]; green peach aphid): A (80-100); BEMITA 200 ppm (Corrected % Control, rating) ([2]; sweetpotato whitefly-crawler): A (80-100)
